Assay results: patent US6617354B1, “Method of stabilizing and potentiating the action of anti-angiogenic substances” (priority 2000, dated 2003)

What was measured:
tumor cells [1] = assay: Potentiation of anti-cancer drugs by PUFAs in tumor cells; assay type: cell-based; conditions: combination with the fatty acid
hepatoma = assay: Hepatoma in rats; assay type: in vivo; conditions: pure fatty acid or fatty acid rich oils
bone marrow cells = assay: Side effects of gamma-radiation and cis-platinum to bone marrow cells of mice; assay type: in vivo
tumor cells [2] = assay: PUFAs on tumor cells and normal cells in vitro; assay type: cell-based; conditions: for tumor cell proliferation: in vitro; for selective killing of tumor cells versus normal cells: tumor cells and normal cells in vitro
Source text: (§1) Tumor cells are not only deficient in PUFAs but also have low rate(s) of lipid peroxidation, contain relatively large amounts of antioxidants such as vitamin E and superoxide dismutase (SOD). It is also believed that low rates of lipid peroxidation and consequent low amounts of lipid peroxides in the cells can contribute to an increase in the mitotic process which ultimately leads to an increase in cell proliferation. Thus, a deficiency of PUFAs, high amounts of antioxidants and the presence of low amounts of lipid peroxides in the tumor cells can contribute to the growth of tumor cells.
Essential fatty acids are precursors of eicosanoids and are important structural components of cell membranes. They also provide the substrates for the generation of lipid peroxidation products which have an inhibitory action on cell proliferation. Tumor cells are known to have low delta-6-desaturase activity, an enzyme necessary for the desaturation of dietary linoleic acid (LA, 18:2, n-6) and alpha-linolenic acid (ALA, 18:3, n-3) to their respective products. […] This selective tumoricidal action of fatty acids seems to be mediated by free radicals and lipid peroxides.

[3] = test system: TNF resistant L-929 tumor cells; assay: TNF resistant L-929 tumor cells in vitro; assay type: cell-based; conditions: for killing of TNF resistant L-929 tumor cells: in vitro; for sensitisation of TNF-resistant L-929 cells to TNF: prior treatment with the fatty acid
ascitic tumor cells = assay: Ascitic tumor cells in the peritoneum of experimental animals; assay type: in vivo; conditions: pure fatty acid or fatty acid rich oils
tumor cells [4] = conditions: cited from earlier work
E-selectin = conditions: proliferating endothelial cells; cited from earlier work
[5] = test system: subcutaneous hemangioendothelioma; conditions: mice with subcutaneous hemangioendothelioma and disseminated intravascular coagulopathy; cited from earlier work
[6] = biological target: T1, alpha/beta sub-units of ATP synthase (Homo sapiens, UniProt P06576+P25705); conditions: human umbilical vein endothelial cells; cited from earlier work
T1 construct: Using human umbilical endothelial vein endothelial cells; endogenous in cells; host or cells: human umbilical vein endothelial cells

KB-chR 8-5 cells = assay: Vincristine resistant KB-8-5 tumor cells; assay type: cell-based
skin papilloma = assay: Skin papilloma in mice; assay type: in vivo; conditions: pure fatty acid or fatty acid rich oils
tumor cells [7] = assay: Mixed culture of normal and tumor cells; assay type: cell-based; conditions: normal and tumor cells grown together
Source text: as §1

[8] = test system: corneal plasminogen synthesis; conditions: cornea; cited from earlier work

T1 sequence (P25705 44-553): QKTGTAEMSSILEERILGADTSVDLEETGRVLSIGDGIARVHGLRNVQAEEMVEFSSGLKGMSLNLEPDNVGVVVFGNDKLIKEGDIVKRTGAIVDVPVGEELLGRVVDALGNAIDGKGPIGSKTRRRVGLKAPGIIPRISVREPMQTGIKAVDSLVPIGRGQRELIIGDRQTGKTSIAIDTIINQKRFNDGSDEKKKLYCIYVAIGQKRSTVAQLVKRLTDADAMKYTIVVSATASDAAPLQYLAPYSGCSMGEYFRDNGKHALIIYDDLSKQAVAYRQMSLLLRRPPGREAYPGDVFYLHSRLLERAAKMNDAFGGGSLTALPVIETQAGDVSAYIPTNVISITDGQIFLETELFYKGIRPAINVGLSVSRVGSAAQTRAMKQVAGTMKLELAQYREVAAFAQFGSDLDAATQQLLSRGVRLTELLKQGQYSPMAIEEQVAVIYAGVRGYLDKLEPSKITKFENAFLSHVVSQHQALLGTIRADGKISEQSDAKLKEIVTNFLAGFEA
T1 sequence (P06576 48-529): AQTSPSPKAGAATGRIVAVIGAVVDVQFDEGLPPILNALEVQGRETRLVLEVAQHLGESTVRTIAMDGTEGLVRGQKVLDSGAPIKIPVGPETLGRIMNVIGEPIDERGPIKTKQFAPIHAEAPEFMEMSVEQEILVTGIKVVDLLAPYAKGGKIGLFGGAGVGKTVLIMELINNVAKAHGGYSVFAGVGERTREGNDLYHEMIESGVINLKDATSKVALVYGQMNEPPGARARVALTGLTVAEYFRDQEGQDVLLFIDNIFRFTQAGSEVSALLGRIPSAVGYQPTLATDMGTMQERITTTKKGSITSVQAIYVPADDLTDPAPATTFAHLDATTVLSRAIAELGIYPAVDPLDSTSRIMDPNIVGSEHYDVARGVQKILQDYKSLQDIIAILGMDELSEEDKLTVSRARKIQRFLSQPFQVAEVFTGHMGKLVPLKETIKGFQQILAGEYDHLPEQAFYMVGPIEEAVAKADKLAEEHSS
T1 sequence (P36542 26-298 partner): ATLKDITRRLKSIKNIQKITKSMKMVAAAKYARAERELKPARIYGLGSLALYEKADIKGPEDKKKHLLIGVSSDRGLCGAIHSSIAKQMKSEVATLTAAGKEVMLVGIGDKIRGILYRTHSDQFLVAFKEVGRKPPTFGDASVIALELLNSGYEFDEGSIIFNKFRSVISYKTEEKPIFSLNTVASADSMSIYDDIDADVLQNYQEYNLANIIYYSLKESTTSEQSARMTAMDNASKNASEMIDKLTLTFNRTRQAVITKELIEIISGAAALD
T1 sequence (P30049 23-168 partner): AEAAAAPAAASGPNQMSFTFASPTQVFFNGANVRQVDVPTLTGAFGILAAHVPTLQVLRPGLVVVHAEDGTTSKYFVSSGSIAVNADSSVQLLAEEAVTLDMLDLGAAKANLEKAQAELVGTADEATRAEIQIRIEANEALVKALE
T1 sequence (P56381 2-51 partner limits assumed): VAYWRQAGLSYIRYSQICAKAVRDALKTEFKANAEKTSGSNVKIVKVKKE

Compound: CCCCC/C=C\C/C=C\C/C=C\CCCCC(=O)O [GLA, gamma-linolenic acid]
- cellular uptake of anti-cancer drugs by the tumor cells (tumor cells [1]): enhance the cellular uptake
- cytotoxic action of doxorubicin, vincristine and cis-platinum (tumor cells [1]): augmented
- formation and growth of hepatoma (hepatoma): inhibit the growth
- side effects of gamma-radiation and cis-platinum to bone marrow cells (bone marrow cells): prevent or ameliorate the side effects
- tumor cell proliferation (tumor cells [2]): decrease tumor cell proliferation
- killing of TNF resistant L-929 tumor cells [3]: able to kill
- growth of ascitic tumor cells in the peritoneum (ascitic tumor cells): inhibit the growth

Compound: vitamin E
- free radical generation and lipid peroxidation generated by PUFAs like GLA, EPA and DHA (tumor cells [4]): completely inhibit

Compound: CC/C=C\C/C=C\C/C=C\C/C=C\C/C=C\CCCC(=O)O [EPA, eicosapentaenoic acid]
- cytotoxic action of doxorubicin, vincristine and cis-platinum (tumor cells [1]): augmented
- side effects of gamma-radiation and cis-platinum to bone marrow cells (bone marrow cells): prevent or ameliorate the side effects

Compound: CCCCC/C=C\C/C=C\CCCCCCCC(=O)O [LA, linoleic acid]
- selective killing of tumor cells versus normal cells (tumor cells [2]): only tumor cells are killed

Compound: angiostatin®
- effect on expression of E-selectin (E-selectin): 4 to 5 fold
- size of the tumor [5]: significant reduction
- survival [5]: increased survival
- binding to alpha/beta sub-units of ATP synthase [6]: bound in a concentration-dependent, saturable manner

Compound: CCCCC/C=C\C/C=C\C/C=C\C/C=C\CCCC(=O)O [AA, arachidonic acid]
- sensitisation of vincristine resistant KB-8-5 cells to vincristine (KB-chR 8-5 cells): made sensitive
- cellular uptake of anti-cancer drugs by the tumor cells (tumor cells [1]): enhance the cellular uptake
- cytotoxic action of doxorubicin, vincristine and cis-platinum (tumor cells [1]): augmented
- growth of skin papilloma (skin papilloma): inhibit the growth
- formation and growth of hepatoma (hepatoma): inhibit the growth
- tumor cell proliferation (tumor cells [2]): decrease tumor cell proliferation
- selective killing of tumor cells versus normal cells (tumor cells [2]): only tumor cells are killed
- killing of TNF resistant L-929 tumor cells [3]: able to kill
- sensitisation of TNF-resistant L-929 cells to TNF [3]: rendered TNF sensitive
- selective tumoricidal action in mixed culture (tumor cells [7]): effective to some extent
- growth of ascitic tumor cells in the peritoneum (ascitic tumor cells): inhibit the growth

Compound: CC\C=C/C=C/C=C/C=C\CCCCCCCC(=O)O [cis-parinaric acid]
- selective killing of tumor cells versus normal cells (tumor cells [2]): only tumor cells are killed

Compound: CCCCC/C=C\C/C=C\C/C=C\CCCCCCC(=O)O [DGLA, dihomo-GLA]
- sensitisation of vincristine resistant KB-8-5 cells to vincristine (KB-chR 8-5 cells): made sensitive
- cellular uptake of anti-cancer drugs by the tumor cells (tumor cells [1]): enhance the cellular uptake
- cytotoxic action of doxorubicin, vincristine and cis-platinum (tumor cells [1]): augmented
- growth of skin papilloma (skin papilloma): inhibit the growth
- formation and growth of hepatoma (hepatoma): inhibit the growth
- side effects of gamma-radiation and cis-platinum to bone marrow cells (bone marrow cells): prevent or ameliorate the side effects
- tumor cell proliferation (tumor cells [2]): decrease tumor cell proliferation
- selective killing of tumor cells versus normal cells (tumor cells [2]): only tumor cells are killed
- killing of TNF resistant L-929 tumor cells [3]: able to kill
- sensitisation of TNF-resistant L-929 cells to TNF [3]: rendered TNF sensitive
- growth of ascitic tumor cells in the peritoneum (ascitic tumor cells): inhibit the growth

Compound: CC/C=C\C/C=C\C/C=C\C/C=C\C/C=C\C/C=C\CCC(=O)O [DHA, docosahexaenoic acid]
- cytotoxic action of doxorubicin, vincristine and cis-platinum (tumor cells [1]): augmented

Compound: CC/C=C\C/C=C\C/C=C\CCCCCCCC(=O)O [ALA, alpha-linolenic acid]
- selective killing of tumor cells versus normal cells (tumor cells [2]): only tumor cells are killed

Compound: interleukin-6: cytokine
- decrease of corneal plasminogen synthesis [8]: 40%
